In ChEMBL document CHEMBL3217601, “Optimized glucuronidation of dual pharmacology -2 agonists/M3 antagonists for the treatment of COPD” (Medchemcomm, 2011):
pEC50, pKi: −log10 of the molar value. Calls of active or inactive are those of the source. The calls are words filed in the database; no cut-off is given here.

How the values were obtained:
[1] = molecular target: T1, Muscarinic acetylcholine receptor M3 (Homo sapiens, UniProt P20309); assay: Displacement of [3H]-N-methyl scopolamine from human cloned muscarinic M3 receptor
Target sequence in this assay (P20309 whole entry): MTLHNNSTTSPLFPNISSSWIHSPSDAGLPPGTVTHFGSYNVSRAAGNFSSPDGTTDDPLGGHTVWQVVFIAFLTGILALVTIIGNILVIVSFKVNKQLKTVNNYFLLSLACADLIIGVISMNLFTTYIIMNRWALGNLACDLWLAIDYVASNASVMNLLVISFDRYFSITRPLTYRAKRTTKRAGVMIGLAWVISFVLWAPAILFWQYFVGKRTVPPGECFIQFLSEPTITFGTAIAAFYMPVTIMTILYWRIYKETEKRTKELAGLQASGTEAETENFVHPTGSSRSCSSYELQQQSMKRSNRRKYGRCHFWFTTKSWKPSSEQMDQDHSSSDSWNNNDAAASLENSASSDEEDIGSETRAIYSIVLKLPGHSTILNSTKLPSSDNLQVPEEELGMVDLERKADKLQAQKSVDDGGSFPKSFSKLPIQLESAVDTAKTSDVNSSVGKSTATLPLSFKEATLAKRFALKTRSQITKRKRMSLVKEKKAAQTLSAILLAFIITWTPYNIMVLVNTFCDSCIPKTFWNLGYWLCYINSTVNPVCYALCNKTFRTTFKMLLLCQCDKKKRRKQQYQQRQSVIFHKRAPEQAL

[2] = molecular target: Beta-1 adrenergic receptor (Homo sapiens, UniProt P08588); assay: Agonist activity at beta-1 adrenoceptor (unknown origin)
[3] = Intrinsic clearance in human liver microsomes assessed as glucuronidation in absence of NADPH and presence of microsomal activator Brij58 and UDPGA
[4] = Drug metabolism of the compound in human liver microsomes assessed as glucuronidation in absence of NADPH and presence of microsomal activator Brij58 and UDPGA
[5] = molecular target: T2, Beta-2 adrenergic receptor (Homo sapiens, UniProt P07550); assay: Agonist activity at human beta-2 adrenoceptor expressed in CHO cells assessed as stimulation of intracellular cAMP production; type: functional, cell-based
Target sequence in this assay (P07550 whole entry): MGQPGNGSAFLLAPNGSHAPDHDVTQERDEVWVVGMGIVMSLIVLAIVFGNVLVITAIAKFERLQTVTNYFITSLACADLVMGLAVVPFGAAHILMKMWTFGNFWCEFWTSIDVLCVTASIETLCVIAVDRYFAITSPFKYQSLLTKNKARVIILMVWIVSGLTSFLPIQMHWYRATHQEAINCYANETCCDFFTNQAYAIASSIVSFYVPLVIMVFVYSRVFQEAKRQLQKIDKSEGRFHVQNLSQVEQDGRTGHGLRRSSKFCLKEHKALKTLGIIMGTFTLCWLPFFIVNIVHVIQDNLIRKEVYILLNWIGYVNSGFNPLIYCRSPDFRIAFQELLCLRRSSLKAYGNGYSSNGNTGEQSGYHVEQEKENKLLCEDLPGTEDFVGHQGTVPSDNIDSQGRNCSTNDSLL

[6] = molecular target: Muscarinic acetylcholine receptor M3 (Cavia porcellus) (UniProt Q8VH26); assay: Antagonist activity at muscarinic M3 receptor in guinea pig trachea assessed as time taken for muscle tone at submaximal concentration of compound to recover by 50% of inhibition induced in presence of propranolol
[7] = species on record: Cavia porcellus; assay: Modulation of beta-2 adrenoceptor/muscarinic M3 receptor in guinea pig trachea assessed as time taken for muscle tone at submaximal concentration of compound to recover by 50% of inhibition induced; type: tissue-based
[8] = Drug metabolism in human hepatocytes assessed as formation of phenol glucuronide and sulfate metabolite by LC/MS/MS analysis; type: ADME, cell-based, Hepatocyte
[9] = species on record: Oryctolagus cuniculus; assay: Toxicity in rabbit cough model; type: organism-based; details: in vivo
[10] = species on record: Cavia porcellus; assay: Bronchodilatory activity in guinea pig in presence of propranolol; type: functional, organism-based
[11] = AUC in rat at 0.2 mg/kg, po; type: ADME, organism-based; set-up: dose 0.2 mg/kg, route oral; details: plasma
[12] = AUC in rat at 2 mg/kg, iv; type: ADME, organism-based; set-up: dose 2 mg/kg, route intravenous; details: plasma
[13] = test system: Salmonella typhimurium; assay: Genotoxicity in Salmonella typhimurium assessed by Ames test; type: toxicity, organism-based; details: salmonella enterica subsp. enterica serovar typhimurium
[14] = AUC in guinea pig at 0.2 mg/kg, po; type: ADME, organism-based, Cavia porcellus; set-up: dose 0.2 mg/kg, route oral; details: plasma
[15] = Genotoxicity in micronucleus (unknown origin)
[16] = molecular target: T1, Muscarinic acetylcholine receptor M3; assay: Displacement of [3H]-N-methyl scopolamine from human cloned muscarinic M3 receptor assessed as time taken to reach 50% of total [3H]-NMS
Target sequence in this assay (P20309 whole entry, looked up): as the sequence (P20309 whole entry) above

[17] = Stability of the compound at 70 degC and 75% relative humidity assessed as impurity after 7 days; type: physicochemical; details: 168 h
[18] = test system: Canis familiaris; assay: Bronchodilatory activity in intratracheally dosed dog assessed as duration of inhibition of methacholine-induced bronchoconstriction; type: functional, Canis lupus familiaris
[19] = molecular target: Muscarinic acetylcholine receptor M3 (Cavia porcellus, UniProt Q8VH26); assay: Antagonist activity at muscarinic M3 receptor in guinea pig trachea assessed as inhibition of electric field stimulated muscle contraction by measuring release of endogenous acetylcholine in presence of propranolol
[20] = Clearance in rat at 0.2 mg/kg, po; type: ADME, organism-based; set-up: dose 0.2 mg/kg, route oral; details: in vivo
[21] = Half life in rat at 0.2 mg/kg, po; type: ADME, organism-based; set-up: dose 0.2 mg/kg, route oral; details: in vivo
[22] = Clearance in guinea pig at 0.2 mg/kg, po; type: ADME, organism-based, Cavia porcellus; set-up: dose 0.2 mg/kg, route oral; details: in vivo
[23] = Clearance in rat at 2 mg/kg, iv; type: ADME, organism-based; set-up: dose 2 mg/kg, route intravenous; details: in vivo
[24] = molecular target: T2, Beta-2 adrenergic receptor; assay: Ratio of EC50 for human beta-2 adrenoceptor measured after drug washout to EC50 for human beta-2 adrenoceptor
Target sequence in this assay (P07550 whole entry, looked up): as the sequence (P07550 whole entry) above

[25] = species on record: Cavia porcellus; assay: Bronchodilatory activity in guinea pig in presence of NK2 agonist BANA; type: functional, organism-based
[26] = Half life in guinea pig at 0.2 mg/kg, po; type: ADME, organism-based, Cavia porcellus; set-up: dose 0.2 mg/kg, route oral; details: in vivo
[27] = Modulation of beta-2 adrenoceptor/muscarinic M3 receptor in guinea pig trachea assessed as inhibition of electric field stimulated muscle contraction by measuring release of endogenous acetylcholine; type: tissue-based, Cavia porcellus
[28] = test system: Canis familiaris; assay: Bronchodilatory activity in intratracheally dosed dog assessed as inhibition of methacholine-induced bronchoconstriction in presence of NK2 agonist BANA; type: functional, organism-based; details: Canis lupus familiaris
[29] = test system: Canis familiaris; assay: Bronchodilatory activity in intratracheally dosed dog assessed as inhibition of methacholine-induced bronchoconstriction in presence of propranolol; type: functional, organism-based; details: Canis lupus familiaris
[30] = molecular target: Beta-2 adrenergic receptor (Cavia porcellus, UniProt Q8K4Z4); assay: Agonist activity at beta-2 adrenoceptor in guinea pig trachea assessed as inhibition of histamine-induced muscle contraction
[31] = test system: Canis familiaris; assay: Bronchodilatory activity in intratracheally dosed dog assessed as inhibition of methacholine-induced bronchoconstriction; type: functional, Canis lupus familiaris

Beta-1 adrenergic receptor, sequence (P08588 whole entry): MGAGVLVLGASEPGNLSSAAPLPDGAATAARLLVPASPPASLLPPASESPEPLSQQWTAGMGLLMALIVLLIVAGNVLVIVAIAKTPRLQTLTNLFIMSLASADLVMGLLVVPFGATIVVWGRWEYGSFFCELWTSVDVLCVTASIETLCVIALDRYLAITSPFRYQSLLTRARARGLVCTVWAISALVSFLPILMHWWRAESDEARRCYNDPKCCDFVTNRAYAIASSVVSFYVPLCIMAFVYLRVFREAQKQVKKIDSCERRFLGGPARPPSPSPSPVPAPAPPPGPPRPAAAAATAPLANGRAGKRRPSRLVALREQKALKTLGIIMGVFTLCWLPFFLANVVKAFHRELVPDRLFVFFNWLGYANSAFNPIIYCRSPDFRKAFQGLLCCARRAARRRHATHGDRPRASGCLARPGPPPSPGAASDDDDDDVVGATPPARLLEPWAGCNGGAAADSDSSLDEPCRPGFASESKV
Beta-2 adrenergic receptor (Cavia porcellus, UniProt Q8K4Z4), sequence (Q8K4Z4 whole entry): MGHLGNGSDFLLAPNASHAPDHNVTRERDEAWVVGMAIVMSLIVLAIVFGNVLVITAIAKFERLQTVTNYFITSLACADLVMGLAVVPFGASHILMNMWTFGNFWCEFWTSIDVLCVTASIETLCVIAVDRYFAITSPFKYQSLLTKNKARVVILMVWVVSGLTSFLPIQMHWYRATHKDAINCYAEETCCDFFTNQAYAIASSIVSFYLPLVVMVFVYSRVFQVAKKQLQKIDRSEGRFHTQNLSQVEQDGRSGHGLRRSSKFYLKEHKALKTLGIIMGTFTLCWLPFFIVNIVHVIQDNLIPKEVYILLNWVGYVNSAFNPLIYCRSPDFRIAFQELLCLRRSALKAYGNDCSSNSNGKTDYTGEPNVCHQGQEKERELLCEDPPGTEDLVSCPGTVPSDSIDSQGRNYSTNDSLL
Muscarinic acetylcholine receptor M3 (Cavia porcellus, UniProt Q8VH26), sequence (Q8VH26 whole entry): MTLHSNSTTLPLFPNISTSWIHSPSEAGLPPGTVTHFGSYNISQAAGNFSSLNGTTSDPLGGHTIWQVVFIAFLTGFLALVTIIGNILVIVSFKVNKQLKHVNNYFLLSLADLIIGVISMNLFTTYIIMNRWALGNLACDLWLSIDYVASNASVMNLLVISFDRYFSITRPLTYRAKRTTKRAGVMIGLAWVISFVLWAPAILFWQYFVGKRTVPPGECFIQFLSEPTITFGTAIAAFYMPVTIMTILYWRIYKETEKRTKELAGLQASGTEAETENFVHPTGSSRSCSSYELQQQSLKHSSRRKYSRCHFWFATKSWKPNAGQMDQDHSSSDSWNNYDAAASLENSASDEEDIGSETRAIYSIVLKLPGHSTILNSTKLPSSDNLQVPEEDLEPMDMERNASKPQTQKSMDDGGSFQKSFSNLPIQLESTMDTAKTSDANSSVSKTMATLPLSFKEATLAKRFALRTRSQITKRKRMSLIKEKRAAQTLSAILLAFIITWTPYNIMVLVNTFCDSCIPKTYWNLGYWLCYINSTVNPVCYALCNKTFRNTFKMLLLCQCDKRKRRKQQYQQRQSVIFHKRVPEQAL
Muscarinic acetylcholine receptor M3 (Cavia porcellus), sequence (Q8VH26 1-587): as the sequence (Q8VH26 whole entry) above

Q: With `CS(=O)(=O)Nc1cc([C@@H](O)CNCCCCCCCCCN2CCC(OC(=O)Nc3ccccc3-c3ccc(F)cc3O)CC2)ccc1O` as the molecule, how does the pKi [1] read?
A: 7.59

Q: And the pEC50 [2]?
A: < 5.00

Q: And the microsomal CLint [3]?
A: 8.8 µL/min/mg

Q: And the microsomal CLint [4]?
A: < 2 µL/min/mg

Q: With `CS(=O)(=O)Nc1cc([C@@H](O)CNCCc2ccc(OCCN3CCC(OC(=O)Nc4ccccc4-c4ccc(O)c(Cl)c4)CC3)cc2)ccc1O` as the molecule, how does the pKi [1] read?
A: 7.44

Q: And the pEC50 [2]?
A: < 5.00

Q: What about the microsomal CLint [3] of the same molecule?
A: 74 µL/min/mg

Q: And the microsomal CLint [4]?
A: 48 µL/min/mg

Q: Which results are given for `Cc1ccc(NC(=O)OC2CCN(CCCCCCCCCNC[C@H](O)c3ccc(O)c(NS(C)(=O)=O)c3)CC2)c(-c2ccc(O)c(Cl)c2)c1`?
A: pKi [1]: 8.32; pEC50 [2]: < 5.00; microsomal CLint [3]: 22 µL/min/mg; microsomal CLint [4]: 19 µL/min/mg

Q: With `CS(=O)(=O)Nc1cc([C@@H](O)CNCCCCCCCCCN2CCC(OC(=O)Nc3ccccc3-c3cccc(F)c3O)CC2)ccc1O` as the molecule, how does the pKi [1] read?
A: 8.00

Q: What about the pEC50 [2] of the same molecule?
A: < 5.00

Q: And the microsomal CLint [4]?
A: < 2 µL/min/mg

Q: With `CS(=O)(=O)Nc1cc([C@@H](O)CNCCCCCCCCCN2CCC(OC(=O)Nc3ccccc3-c3ccc(O)c(F)c3)CC2)ccc1O` as the molecule, how does the pKi [1] read?
A: 8.30

Q: What about the pEC50 [5] of the same molecule?
A: 7.59

Q: What about the pEC50 [2] of the same molecule?
A: < 5.00

Q: What about the microsomal CLint [3] of the same molecule?
A: 16 µL/min/mg

Q: And the microsomal CLint [4]?
A: 30 µL/min/mg

Q: With `CS(=O)(=O)Nc1cc([C@@H](O)CNCCCCCCCCCCCN2CCC(OC(=O)Nc3ccccc3-c3ccc(O)c(Cl)c3)CC2)ccc1O` as the molecule, how does the pKi [1] read?
A: 8.36

Q: And the pEC50 [5]?
A: 6.71

Q: And the pEC50 [2]?
A: < 5.00

Q: What about the microsomal CLint [3] of the same molecule?
A: 45 µL/min/mg

Q: What about the microsomal CLint [4] of the same molecule?
A: 16 µL/min/mg

Q: With `CS(=O)(=O)Nc1cc([C@@H](O)CNCCCCCCCCCN2CCC(OC(=O)Nc3ccccc3-c3cc(F)c(O)cc3F)CC2)ccc1O` as the molecule, how does the pKi [1] read?
A: 8.08

Q: What about the pEC50 [5] of the same molecule?
A: 7.66

Q: What about the pEC50 [2] of the same molecule?
A: < 5.00

Q: What about the microsomal CLint [3] of the same molecule?
A: 13 µL/min/mg

Q: And the microsomal CLint [4]?
A: 90 µL/min/mg

Q: With `Cc1ccc(-c2ccc(O)c(Cl)c2)c(NC(=O)OC2CCN(CCCCCCCCCNC[C@H](O)c3ccc(O)c(NS(C)(=O)=O)c3)CC2)c1` as the molecule, how does the pKi [1] read?
A: 8.70

Q: And the pEC50 [5]?
A: 7.85

Q: And the pEC50 [2]?
A: < 5.00

Q: And the microsomal CLint [3]?
A: 29 µL/min/mg

Q: What about the microsomal CLint [4] of the same molecule?
A: 6 µL/min/mg

Q: What does the source list for `CS(=O)(=O)Nc1cc([C@@H](O)CNCCCCCCCCCN2CCC(OC(=O)Nc3ccccc3-c3ccc(O)cc3)CC2)ccc1O`?
A: pKi [1]: 8.66; pEC50 [5]: 7.59; pEC50 [2]: < 5.00; microsomal CLint [3]: 20 µL/min/mg; microsomal CLint [4]: 4 µL/min/mg

Q: Which results are given for `CS(=O)(=O)Nc1cc([C@@H](O)CNCCCCCCCCCN2CCC(OC(=O)Nc3ccccc3-c3ccc(O)c(Cl)c3)CC2)ccc1O`?
A: TIME [6]: > 11 h; TIME [7]: > 11 h; pKi [1]: 9.14; Drug metabolism [8]: Active; Activity [9]: Non-toxic; Activity [10]: Active; AUC [11]: 256 ng·h/mL; AUC [12]: 125 ng·h/mL; Activity [13]: Non-toxic; AUC [14]: 920 ng·h/mL; Activity [15]: Non-toxic; TIME [16]: 1.95 h; Stability [17]: Stable; Time [18]: 14 h; pEC50 [5]: 8.43; pEC50 [19]: 7.92; CL/F [20]: 14 mL/min/kg; half-life [21]: 1.6 h; CL/F [22]: 3.6 mL/min/kg; clearance [23]: 164 mL/min/kg; pEC50 [2]: < 5.00; Ratio EC50 [24]: 1.5; Activity [25]: Active; half-life [26]: 0.8 h; pEC50 [27]: 8.14; microsomal CLint [3]: 23 µL/min/mg; microsomal CLint [4]: 24 µL/min/mg; Activity [28]: Active; Activity [29]: Active; pEC50 [30]: 8.24; ID50 [31]: 50 µg

Q: With `O=C(Nc1ccccc1-c1ccccc1)OC1CCN(CCCCCCCCCNC[C@H](O)c2ccc(O)c3[nH]c(=O)ccc23)CC1` as the molecule, how does the pEC50 [2] read?
A: < 5.00

Q: With `CS(=O)(=O)Nc1cc([C@@H](O)CNCCc2ccc(OCCCN3CCC(OC(=O)Nc4ccccc4-c4ccc(O)c(Cl)c4)CC3)cc2)ccc1O` as the molecule, how does the pKi [1] read?
A: 8.51

Q: What about the pEC50 [5] of the same molecule?
A: 7.89

Q: And the pEC50 [2]?
A: < 5.00

Q: And the microsomal CLint [3]?
A: 33 µL/min/mg

Q: And the microsomal CLint [4]?
A: 29 µL/min/mg

Q: With `CS(=O)(=O)Nc1cc([C@@H](O)CNCCCCCCCCCN2CCC(OC(=O)Nc3ccccc3-c3cccc(O)c3)CC2)ccc1O` as the molecule, how does the pKi [1] read?
A: 8.43

Q: And the pEC50 [5]?
A: 6.89

Q: And the pEC50 [2]?
A: < 5.00

Q: What about the microsomal CLint [3] of the same molecule?
A: 26 µL/min/mg

Q: What about the microsomal CLint [4] of the same molecule?
A: < 3.5 µL/min/mg

Q: With `CS(=O)(=O)Nc1cc([C@@H](O)CNCCCCCCCCCN2CCC(OC(=O)Nc3ccc(F)cc3-c3ccc(O)c(Cl)c3)CC2)ccc1O` as the molecule, how does the pKi [1] read?
A: 8.96

Q: And the pEC50 [5]?
A: 7.64

Q: What about the pEC50 [2] of the same molecule?
A: < 5.00

Q: And the microsomal CLint [3]?
A: 25 µL/min/mg

Q: What about the microsomal CLint [4] of the same molecule?
A: 17 µL/min/mg
